Laboratory results published in publication PMC12867150, “A fungi-derived cyclic peptide enhances Th9-mediated antitumor immunity by targeting ZAP70 and SREBP1” (The Journal of Clinical Investigation, 2025).
Counter-ions that a name gives are not always drawn.

Experiments:
[1] = test system: mitochondria of human Th9 cells; experiment: Mitochondrial membrane potential / mass of human Th9 cells (Figure 8D, S9B); format: cell-based; settings: for mitochondrial mass using Mito Tracker in human Th9 cells: flow cytometry, Supplemental Figure 9B
Procedure: For Th9 polarization, cultures were supplemented with IL-4 (10 ng/mL, PeproTech, catalog AF-200-04), TGF-β (1 ng/mL), and neutralizing anti–IFN-γ monoclonal antibody (10 μg/mL, clone B27, BioXcell, catalog BE0245). After 3 days of initial culture, cells were either collected for downstream assays or continued in extended culture with refreshed cytokines to maintain lineage commitment without antibodies. Th9 cells were collected at days 4, 5, and 6 for subsequent in vitro assays. For adoptive transfer studies, day 4–cultured Th9 cells were washed and prepared for intravenous injection.
Mitochondrial mass and membrane potential were assessed using MitoTracker™ Deep Red FM (Thermo Fisher Scientific, catalog M22426) and TMRM (tetramethylrhodamine methyl ester; Macklin, catalog T868125), respectively, following the manufacturers’ protocols. Cells were incubated with the respective dyes, washed, and subjected to flow cytometry or fluorescence microscopy analysis. For ultrastructural assessment, mitochondrial number and diameter were quantified from high-resolution transmission electron microscopy (TEM) images using ImageJ software.

Th9 cells = experiment: IL-9+ Th9 cells with oleic acid (S8I-J); format: cell-based, mouse; settings: representative flow plot, Figure S8I; EpA 10 μM, OA 50 μM
Source text: LXR-α binding site ChREBP binding site USF1 binding site […] 2.1 1.8 2.1 […] 1.9 […] 20 20 0 […] + OA ✱✱✱✱ MIGR1 M Ctrl + OAEpA […] SREBP1 Ctrl SREBP1EpA ✱✱✱✱ ✱✱✱ 3 2 1 0 TNF-α MIGR1 SREBP1 […] SREBP1EpA Figure S8. EpA-associated modulation of lipid metabolism and its impact on Figure S8 Th9 cell function. (A-C) GSEA of RNA-seq data showing intracellular sterol transport (A), sterol transfer activity (B), and long-chain fatty acid transport (C) pathways in control and EpA-treated Th9 cells. […] (K and L) Flow-cytometric analysis of IL-9 expression in Th9 cells transduced with either control (MIGR1) or SREBP1- […]

dendritic cells (DCs) = experiment: Flow cytometry of dendritic cells (S1J-K); format: in vivo, mouse; set-up: key to Frequencies of DC in Spleen / Frequencies of DC in LN: % of cells; settings: for Frequencies of DC in LN: Supplemental Figure 1K left; for number of DC in LN: Supplemental Figure 1K right; for DC (CD11c) gate number: representative flow plot; for Frequencies of DC in Spleen: Supplemental Figure 1J left; for number of DC in Spleen: Supplemental Figure 1J right
Procedure: C57BL/6 mice were subcutaneously injected with 5 × 10^5 B16-OVA melanoma cells. Five days after tumor implantation, mice received an intravenous infusion of 2 × 10^6 in vitro–differentiated Th9 cells (cultured for 5 days), which were derived from OT-II CD45.1 donor mice, accompanied by 4 × 10^5 OVA peptide–pulsed DCs via the tail vein. To enhance T cell engraftment and facilitate lymphodepletion, a single intraperitoneal injection of cyclophosphamide (200 mg/kg, Sigma, catalog C0768) was administered 1 day prior to T cell transfer. Mice were euthanized at designated time points for the collection and analysis of spleens, tumor-draining lymph nodes, and tumor tissues.
Details regarding staining panels (human and mouse), reagents (including clones and catalog numbers), acquisition settings, compensation/controls, and analysis procedures are provided in Supplemental Methods. […]
Figure S1. EpA enhances immune responses. […]
Representative plots, frequencies, and total numbers of dendritic cells (DCs) in […]
spleens (J) and LNs (K). […]
Statistical analysis was performed using two-way ANOVA with Tukey’s post hoc test (A), one-way ANOVA with Tukey’s post hoc test (B) or two-tailed unpaired Student’s t-test (D and G–M). ns, not significant. *p < 0.05, **p < 0.01, ****p < 0.0001.
(also on this page, place not known: Mouse weight (g) CtrlEpA CtrlEpA CtrlEpA0 I CD45.1+ T cells (%) CtrlEpA CD4+ T cells (%) CtrlEpA CtrlEpA CtrlEpA FSC CD8 CD8 FSC FSC FSC BNumber of CD45.1+ T cells (×103 per mgĎ Number of CD4+ T cells (×104 per mgĎ DC (%)NK cells (%) NK cells (%) DC (%) Number of DC (×103 per mg) Number of NK cells (×105) Number of NK cells (×103 per mg) Number of DC (×105) FSC FSC FSC CD8 CtrlEpA CtrlEpA CtrlEpA CD8+ T cells (%) Number of CD8+ T cells (×104 per mgĎ nsns ns nsns ns 40 IL-6 (pg/ml))

Molecule: CCCc1cc(-c2nc(-c3ccc(C)cc3)cs2)ccn1 [fatostatin, fatostatin hydrobromide, reference compound]
- mitochondrial membrane potential, human EpA-Th9 ([1]; with fatostatin, result in words): further augmented

Molecule: anteiso-C15 Leu7 surfactin [EpA]
- mitochondrial mass using Mito Tracker in human Th9 cells ([1]; replicate 1): 2.888 ×10^5
- mitochondrial mass using Mito Tracker in human Th9 cells ([1]; replicate 2): 2.867 ×10^5
- mitochondrial mass using Mito Tracker in human Th9 cells ([1]; replicate 3): 2.9 ×10^5
- mitochondrial membrane potential, human Th9 ([1]; result in words): increased mitochondrial membrane potential
- IL-9 gate number (Th9 cells): 77.2
- Frequencies of DC in LN (dendritic cells (DCs); LN, replicate 1): 2.19
- Frequencies of DC in LN (dendritic cells (DCs); LN, replicate 2): 1.85
- Frequencies of DC in LN (dendritic cells (DCs); LN, replicate 3): 1.69
- Frequencies of DC in LN (dendritic cells (DCs); LN, replicate 4): 1.46
- number of DC in LN (dendritic cells (DCs); LN, replicate 1): 3234.29
- number of DC in LN (dendritic cells (DCs); LN, replicate 2): 2390.2
- number of DC in LN (dendritic cells (DCs); LN, replicate 3): 1334.11
- number of DC in LN (dendritic cells (DCs); LN, replicate 4): 1093.89
- DC (CD11c) gate number (dendritic cells (DCs); LN, Figure S1K): 2.19
- Frequencies of DC in Spleen (dendritic cells (DCs); Spleen, replicate 1): 1.58
- Frequencies of DC in Spleen (dendritic cells (DCs); Spleen, replicate 2): 1.85
- Frequencies of DC in Spleen (dendritic cells (DCs); Spleen, replicate 3): 1.61
- Frequencies of DC in Spleen (dendritic cells (DCs); Spleen, replicate 4): 3.57
- number of DC in Spleen (dendritic cells (DCs); Spleen, replicate 1): 143005
- number of DC in Spleen (dendritic cells (DCs); Spleen, replicate 2): 161881
- number of DC in Spleen (dendritic cells (DCs); Spleen, replicate 3): 145729
- number of DC in Spleen (dendritic cells (DCs); Spleen, replicate 4): 275281
- DC (CD11c) gate number (dendritic cells (DCs); Spleen, Figure S1J): 1.85
- DC frequencies and total counts (dendritic cells (DCs); spleens and lymph nodes, result in words): significantly elevated
